Patent US9957272B2, “3-hydroxypyrrolidine inhibitors of 5′-methylthioadenosine phosphorylase and nucleosidase” (priority 2009, dated 2018)
Where two headings read alike, the source gives them in different places.

Key:
human MTAP = biological target: T1, human MTAP (Homo sapiens, UniProt Q13126); assay: Inhibition of human MTAP, continuous spectrophotometric assay; type: biochemical
T1 construct: made in house
T1 sequence (Q13126 1-283): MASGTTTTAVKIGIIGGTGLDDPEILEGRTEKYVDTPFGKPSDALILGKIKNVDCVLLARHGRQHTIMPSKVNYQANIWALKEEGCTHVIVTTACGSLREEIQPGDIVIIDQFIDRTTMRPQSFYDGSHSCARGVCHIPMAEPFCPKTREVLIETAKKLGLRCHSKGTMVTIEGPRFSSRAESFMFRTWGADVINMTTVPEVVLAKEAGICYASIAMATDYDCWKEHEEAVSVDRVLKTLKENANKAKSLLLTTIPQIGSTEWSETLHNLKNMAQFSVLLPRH
From the text: Continuous spectrophotometric assays are used to characterize the compounds of the invention and […] inhibition of MTAP.

E. coli MTAN = biological target: T2, E. coli MTAN (Escherichia coli, UniProt P0AF12); assay: biochemical; type: biochemical
T2 construct: made in house
Procedure: After removal of cell debris by centrifugation, the soluble cell lysates are loaded onto nickel-charged chelating Sepharose (GE Healthcare) and washed with lysis buffer containing 20-150 mM imidazole. The 6His-MTANs are eluted in 250 mM imidazole, desalted using a Sephadex G-15 (GE Healthcare) gel filtration column, equilibrated with low salt buffer (100 mM HEPES, 30 mM KCL, pH 7.6) and concentrated to 40 mg/mL.
Briefly, all experiments are carried out at 25° C., in 1 mL total reaction volume containing 100 mM HEPES buffer, pH 7.5 and 50 mM KCl with 5′-deoxymethylthioadenosine (MTA) as substrate. […] For measuring dissociation constant (Kd) of inhibitors, a xanthine oxidase-coupled assay is carried out. […] Control experiments are carried out in the absence of either inhibitor or MTAN.
[formula] where vs^t and vs are steady state rates in the presence, and absence of inhibitor, respectively; Km is substrate Michaelis constant which is obtained as described above; [S] and [I] are the concentrations of the substrate MTA and inhibitor, respectively. If the concentration of inhibitor is smaller than 10-fold concentration of enzymes, the following correction is then applied: r=I′−(1−v0′/v0)Et
All data fitting is carried out with KaleidaGraph™ ver. 3.5 (Synergy Software).

[1] = 25° C., pH 7.5, MTA as substrate, read-out: Inhibition (Ki) E. coli MTAN
[2] = read-out: Inhibition (Ki) Human MTAP

SMILES | Ki (human MTAP) [nM] | other results
Nc1ncnc2c(CN3C[C@@H](O)[C@H](c4ccccc4)C3)c[nH]c12 (racemic) [Example 1, (±)-trans-1-[(9-Deaza-adenin-9-yl)methyl]-3-hydroxy-4-phenylpyrrolidine] | 4.3 ± 0.6 | 
Nc1ncnc2c(CN3C[C@@H](CC4CCCCC4)[C@H](O)C3)c[nH]c12 (racemic) [Example 2, (±)-trans-4-(Cyclohexylmethyl)-1-[(9-deaza-adenin-9-yl)methyl]-3-hydroxy-pyrrolidine] | > 5000 | 
C#C[C@@H]1CN(Cc2c[nH]c3c(N)ncnc23)C[C@H]1O (racemic) [Example 7, (±)-3,4-trans-1-[(9-Deaza-adenin-9-yl)methyl]-4-ethynyl-3-hydroxypyrrolidine] |  | Ki (E. coli MTAN; [1]): 0.39 ± 0.02 nM; Ki (human MTAP; [2]): 31 ± 3 nM
CCCC[C@@H]1CN(Cc2c[nH]c3c(N)ncnc23)C[C@H]1O (racemic) [Example 8, (±)-trans-1-[(9-Deaza-adenin-9-yl)methyl]-4-butyl-3-hydroxypyrrolidine] | > 5000 | Ki (E. coli MTAN; [1]): 0.051 ± 0.003 nM
CCC(CC)[C@@H]1CN(Cc2c[nH]c3c(N)ncnc23)C[C@H]1O (racemic) [Example 10, (±)-trans-1-[(9-Deaza-adenin-9-yl)methyl]-3-hydroxy-4-(pent-3-yl)pyrrolidine] | > 5000 | Ki (E. coli MTAN): 0.7 ± 0.1 nM
CC[C@@H]1CN(Cc2c[nH]c3c(N)ncnc23)C[C@H]1O (racemic) [Example 11, (±)-trans-1-[(9-Deaza-adenin-9-yl)methyl]-4-ethyl-3-hydroxypyrrolidine] | 8.6 ± 1 | Ki (E. coli MTAN): 0.31 ± 0.02 nM
Nc1ncnc2c(CN3C[C@@H](O)[C@H](C4CCCC4)C3)c[nH]c12 (racemic) [Example 13, (±)-trans-4-Cyclopentyl-1-[(9-deaza-adenin-9-yl)methyl]-3-hydroxypyrrolidine] | 2.4 ± 0.4 | 
Nc1ncnc2c(CN3C[C@@H](O)[C@H](c4cn(Cc5ccccc5)nn4)C3)c[nH]c12 (racemic) [Example 14, (±)-trans-4-(1-Benzyl-1H-1,2,3-triazol-4-yl)-1[(9-deaza-adenin-9-yl)methyl]-3-hydroxypyrrolidine] |  | Inhibition of Human MTAP (human MTAP; at 2.5 μM): ^a (indicates no inhibition observed at 2.5 μM)
Nc1ncnc2c(CN3C[C@@H](O)[C@H](c4c[nH]nn4)C3)c[nH]c12 (racemic) [Example 15, (±)-trans-1-[(9-Deaza-adenin-9-yl)methyl]-3-hydroxy-4-(1H-1,2,3-triazol-4-yl)pyrrolidine] |  | Ki (E. coli MTAN; [1]): 2 ± 0.2 nM; Ki (human MTAP; [2]): 59 ± 8 nM
Nc1ncnc2c(CN3C[C@@H](CCCSCc4ccccc4)[C@H](O)C3)c[nH]c12 (racemic) [Example 16, (±)-trans-4-[3-(Benzylthio)propyl]-1-[(9-deaza-adenin-9-yl)methyl]-3-hydroxypyrrolidine] | 71 ± 5 | Selectivity for bacterial MTAN (E. coli MTAN): some selectivity for bacterial MTAN
CC[C@H]1CN(Cc2c[nH]c3c(N)ncnc23)C[C@H]1O (racemic) [Example 18, (±)-cis-1-[(9-Deaza-adenin-9-yl)methyl]-4-ethyl-3-hydroxypyrrolidine] | 34 ± 3 | Ki (E. coli MTAN; [1]): 1.8 ± 0.3 nM
CCCC[C@H]1CN(Cc2c[nH]c3c(N)ncnc23)C[C@@H]1O [Example 17, (3R,4S)-4-Butyl-1-[(9-deaza-adenin-9-yl)methyl]-3-hydroxypyrrolidine] |  | Ki (human MTAP; [2]): 0.55 ± 0.07 nM

Continued, in another order:

Ki (human MTAP) [nM] | SMILES | other results
5.8 ± 0.7 | Nc1ncnc2c(CN3C[C@@H](O)[C@H](C4CC4)C3)c[nH]c12 (racemic) [Example 4, (±)-trans-4-Cyclopropyl-1-[(9-deaza-adenin-9-yl)methyl]-3-hydroxypyrrolidine] | 
8.7 ± 1 | C=C[C@@H]1CN(Cc2c[nH]c3c(N)ncnc23)C[C@H]1O (racemic) [Example 5, (±)-trans-1-[(9-Deaza-adenin-9-yl)methyl]-3-hydroxy-4-vinylpyrrolidine] | 
14.3 ± 1.7 | C=CC[C@@H]1CN(Cc2c[nH]c3c(N)ncnc23)C[C@H]1O (racemic) [Example 6, (±)-trans-4-Allyl-1-[(9-deaza-adenin-9-yl)methyl]-3-hydroxypyrrolidine] | 
6 ± 0.4 | CC(C)C[C@@H]1CN(Cc2c[nH]c3c(N)ncnc23)C[C@H]1O (racemic) [Example 9, (±)-trans-1-[(9-Deaza-adenin-9-yl)methyl]-3-hydroxy-4-isobutylpyrrolidine] | 
> 5000 | CC[C@H]1CN(Cc2c[nH]c3c(N)ncnc23)C[C@@H]1O [Example 12] | 
